Data from patent US6379959B1, “Metalocarboxypeptidase inhibitors and derived molecules used as antitumor agents” (Universitat Autonoma de Barcelona, priority 1996, dated 2002).
Positions of bridges follow the written chain, without caps; N, C: chain ends. No end group written: not given here.

Legend:
[1] = test system: human pancreatic adenocarcinoma cell line MDAPanc-3; experiment: Proliferation test by recount of the cells number (hemocytometer), MDAPanc-3; assay type: cell-based
Experimental: In this assay and with the aim of determining whether the presence in the culture medium produces some effect on the growth in vitro of the cell lines, the final number of the cells when the control reaches monolayer is determined, in the presence and in the absence of the inhibitor. The calculation is made by direct recount of the number of cells using trypsinization and subsequent recount in a hemocytometer. The detailed method is as follows:
1. In each of the three culture flasks of 25 cm^2, 5×10^5 cells are seed and a total volume of the culture medium is added (DMEM with a 10% of fetal bovine serum or synthetic serum, according to the test) of 5 mL:
A first flask is used as control and no PCI is added to it.
PCI is added to a second flask some hours after the culture has started and once the cells have adhered to the bottom of the flask. This type of test is defined as postadherence test.
PCI is added to a third flask at the same time as the culture has begun, before the cells have had time to adhere to the bottom of the flask, thus constituting the preadherence test.
2. The cells are maintained in an incubator at 37° C., 87% of relative humidity and 10% of CO2. The medium contained in the flasks is changed every 3-4 days. Medium free of PCI is added to the control flask; medium with PCI is added to the other two.
3. When the culture of one of the flasks reaches a state of monolayer (or after a specific number of days), we proceed to count the number of cells in each one of them. Firstly and in order to do that, the cells are trypsinized using the following steps:
Immediately after, the recount of the number of cells is done. To do that, an aliquot of 10 μL is taken and it is placed in an eppendorf tube. 10 μL of a solution of trypan blue dye is added. Then, it is well mixed and two aliquots of 10 μL of the mixture are taken and placed in the two zones of an hemocytometer which is placed in the inverted microscope.
The live cells are observed as being refringent and clear, while the dead ones are observed as opaque and dyed blue, for the staining is only able to penetrate dead cells. The total number of cells of the W zone of the hemocytometer is counted, differentiating between the live and the dead ones. Based on this recount, the total number of cells that was in the initial suspension (which will be the total number of cells that was in the culture) is calculated by multiplying the number obtained by 2×10^4. The viability (in %) is calculated by dividing the number of live cells by the total number of counted cells and multiplying it by 100.
The effect produced by the presence of PCI in the medium is expressed as % of cell growth inhibition, which is calculated according to the formula [formula] […]

cell line Capan-1 = experiment: Studies of PCI disappearance from the culture medium; assay type: cell-based, human; details: 50 μg/mL flask, 24 h; CPA inhibitory activity and ELISA
Experimental: The studies of PCI disappearance were carried out in the cell line Capan-1 by employing various concentrations of PCI.
In three small culture flasks (of 25 cm^2), 5×10^5 cells were placed in each and they were cultivated in medium DMEM+10%FBS until the moment in which, through microscope observation, it could be seen that they had reached 75% of confluence. At this moment, the medium was removed and was substituted by new DMEM+10%FBS (50 μg/mL flask) and by medium with 200 μg/mL of PCI (flask 200 μg/mL). The three flasks were cultivated for a further 24 h. From each of these, samples of […] of culture medium were extracted at half hour intervals. In each of these samples, the existing concentration of PCI was determined by employing two methods (described in the bibliography cited in point 4.A.):
Tests of carboxypeptidase A inhibitory activity
In such tests, samples taken from the control flask at the same intervals were used as blanks.
One of the ELISAs that was done with the samples coming from the 200 μg/mL flask was carried out under special conditions in the first step (fixation of the antigens); concretely, by using a concentration of 0.5 M NaCl.

“PCI: potato carboxypeptidase inhibitor, isoform IIa, obtained by recombinant DNA techniques in E. coli (SEQ ID NO.2) (EQHADPICNKPCKTHDDCSGAWFCQACWNSARTCGPYVG; disulfide 12-27, 18-34, 8-24)” was tested, and the “Percentage of Growth Inhibition” value ([1]; 5 mg PCI/mL, Postadhesion) was 19.1 ± 14.5%, the “Percentage of Growth Inhibition” value ([1]; 5 mg PCI/mL, Preadhesion, DMEM+10%BMS until controls confluent) was 20.7 ± 6.9% and the “Percentage of Growth Inhibition” value ([1]; 10 mg PCI/mL, Postadhesion) was 14.3 ± 12.4%. For the same substance, the “Percentage of Growth Inhibition” value ([1]; 10 mg PCI/mL, Preadhesion) was 14.6 ± 14.2% and the “internalization (disappearance of PCI from the culture medium)” value (cell line Capan-1) was “clearly internalized by the cells”.
